How the values were obtained:
Tyk2 kinase domain (DH1) = Tyk2 kinase domain (DH1) (Homo sapiens (Human), UniProt P29597); assay: Tyk2 Radioactive Kinase Assay; type: biochemical; conditions: 10 μM compound; 10 μM ATP; read-out: Tyk2 JH1% Inhibition @ 10 μM
Procedure, shortened: (§1)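 Single-point screen: 10 μM test compound, radioactive kinase read-out, percent inhibition reported for each kinase domain.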

JAK2 kinase domain (JH1) = JAK2 kinase domain (JH1) (Homo sapiens (Human), UniProt O60674); assay: JAK2 Radioactive Kinase Assay; type: biochemical; conditions: 10 μM compound; 10 μM ATP; read-out: JAK2 JH1% Inhibition @ 10 μM
Chain of JAK2 kinase domain (JH1) (O60674 849-1124): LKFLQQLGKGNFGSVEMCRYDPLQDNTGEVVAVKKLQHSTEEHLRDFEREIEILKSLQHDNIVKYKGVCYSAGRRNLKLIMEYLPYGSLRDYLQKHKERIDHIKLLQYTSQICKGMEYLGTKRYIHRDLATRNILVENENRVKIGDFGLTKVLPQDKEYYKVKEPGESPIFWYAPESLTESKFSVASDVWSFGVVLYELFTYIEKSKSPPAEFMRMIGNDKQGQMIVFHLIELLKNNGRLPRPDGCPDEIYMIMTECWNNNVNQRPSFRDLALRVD
Procedure, shortened: as §1

[1] = molecular target: JAK2/JAK2 homdimeric complex (Homo sapiens (Human), UniProt O60674); assay: GM-CSF Induced pSTAT5 in Human PBMC; type: cell-based; conditions: GM-CSF 5 ng/mL for 20 minutes, pSTAT5 by MSD, read-out: PBMC_GMCSF_pSTAT5 IC50
Chain of JAK2/JAK2 homdimeric complex (O60674 whole entry, the tested form may be a part): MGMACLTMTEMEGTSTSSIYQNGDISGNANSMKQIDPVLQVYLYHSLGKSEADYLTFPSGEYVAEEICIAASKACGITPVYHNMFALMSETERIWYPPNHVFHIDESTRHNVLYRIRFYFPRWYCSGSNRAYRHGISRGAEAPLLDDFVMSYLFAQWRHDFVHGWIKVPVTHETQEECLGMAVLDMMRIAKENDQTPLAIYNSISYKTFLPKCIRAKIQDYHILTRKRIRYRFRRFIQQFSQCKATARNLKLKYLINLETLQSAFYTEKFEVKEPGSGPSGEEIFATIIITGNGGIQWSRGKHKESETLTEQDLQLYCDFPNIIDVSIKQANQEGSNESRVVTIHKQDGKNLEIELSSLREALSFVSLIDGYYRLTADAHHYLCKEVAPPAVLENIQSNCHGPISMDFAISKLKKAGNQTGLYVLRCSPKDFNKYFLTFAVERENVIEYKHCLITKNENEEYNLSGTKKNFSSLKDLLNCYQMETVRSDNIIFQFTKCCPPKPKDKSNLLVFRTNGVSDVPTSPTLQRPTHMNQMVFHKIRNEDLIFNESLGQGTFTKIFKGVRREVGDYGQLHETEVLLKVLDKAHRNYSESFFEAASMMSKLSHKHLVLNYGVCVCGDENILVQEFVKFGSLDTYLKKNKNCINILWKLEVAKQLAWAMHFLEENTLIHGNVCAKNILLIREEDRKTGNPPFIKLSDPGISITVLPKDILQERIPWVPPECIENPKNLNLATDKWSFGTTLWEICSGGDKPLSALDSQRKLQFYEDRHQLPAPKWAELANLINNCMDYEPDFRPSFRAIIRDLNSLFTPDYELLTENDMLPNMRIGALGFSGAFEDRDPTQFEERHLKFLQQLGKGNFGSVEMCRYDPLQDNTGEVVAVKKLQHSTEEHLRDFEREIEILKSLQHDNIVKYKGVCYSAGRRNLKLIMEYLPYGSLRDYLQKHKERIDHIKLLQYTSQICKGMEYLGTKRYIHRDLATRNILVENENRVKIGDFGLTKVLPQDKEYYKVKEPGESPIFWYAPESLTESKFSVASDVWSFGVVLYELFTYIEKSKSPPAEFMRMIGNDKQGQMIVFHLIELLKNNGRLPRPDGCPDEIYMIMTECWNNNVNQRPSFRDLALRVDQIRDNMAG
Chain of JAK2/JAK2 homdimeric complex (P32927 17-897 partner): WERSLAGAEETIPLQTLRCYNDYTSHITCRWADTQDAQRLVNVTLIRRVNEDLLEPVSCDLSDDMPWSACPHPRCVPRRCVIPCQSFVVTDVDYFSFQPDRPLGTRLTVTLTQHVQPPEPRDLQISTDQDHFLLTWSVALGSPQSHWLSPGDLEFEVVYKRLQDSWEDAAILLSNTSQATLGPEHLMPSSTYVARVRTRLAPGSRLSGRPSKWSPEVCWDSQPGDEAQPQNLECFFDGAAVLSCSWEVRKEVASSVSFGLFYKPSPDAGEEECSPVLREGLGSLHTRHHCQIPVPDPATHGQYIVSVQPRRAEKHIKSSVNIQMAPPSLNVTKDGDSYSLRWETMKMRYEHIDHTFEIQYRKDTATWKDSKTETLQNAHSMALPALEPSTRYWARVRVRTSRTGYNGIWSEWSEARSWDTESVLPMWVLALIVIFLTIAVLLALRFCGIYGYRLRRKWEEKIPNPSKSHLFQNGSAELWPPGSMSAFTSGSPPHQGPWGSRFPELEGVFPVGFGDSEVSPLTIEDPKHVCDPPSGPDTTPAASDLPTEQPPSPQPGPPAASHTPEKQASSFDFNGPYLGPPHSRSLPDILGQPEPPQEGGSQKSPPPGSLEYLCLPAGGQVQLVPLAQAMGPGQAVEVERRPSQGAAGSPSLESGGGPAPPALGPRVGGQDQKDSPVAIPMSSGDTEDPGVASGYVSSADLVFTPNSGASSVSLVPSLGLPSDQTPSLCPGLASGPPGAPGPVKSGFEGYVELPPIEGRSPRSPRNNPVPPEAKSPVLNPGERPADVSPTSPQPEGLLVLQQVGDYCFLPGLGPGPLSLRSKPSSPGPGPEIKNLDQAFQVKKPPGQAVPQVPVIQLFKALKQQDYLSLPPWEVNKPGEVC

[2] = molecular target: human TYK2 (JH2domain-pseudokinase) (Homo sapiens (Human), UniProt P29597); assay: TYK2 JH2 Domain Binding Assay (KINOMEscan)
Chain of human TYK2 (JH2domain-pseudokinase) (P29597 556-888): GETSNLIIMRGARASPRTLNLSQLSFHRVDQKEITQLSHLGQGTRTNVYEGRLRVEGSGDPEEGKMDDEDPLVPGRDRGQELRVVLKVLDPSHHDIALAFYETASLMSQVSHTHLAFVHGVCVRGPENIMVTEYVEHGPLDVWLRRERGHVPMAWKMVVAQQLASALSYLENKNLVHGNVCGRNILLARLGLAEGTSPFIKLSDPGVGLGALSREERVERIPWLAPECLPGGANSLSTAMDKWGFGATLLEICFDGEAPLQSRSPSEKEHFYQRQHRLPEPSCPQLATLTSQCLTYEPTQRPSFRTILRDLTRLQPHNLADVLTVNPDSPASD
Procedure, shortened: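 Kds, run in duplicate, came from Hill fits (slope fixed at −1) of an 11-point 3-fold dilution series starting at 30,000 nM. Bead-retained TYK2 JH2 (aa G556–D888)–NFkB DBD fusion, DNA-tagged and expressed in HEK293 cells, was read by qPCR after 1 h room-temperature binding in 0.9% DMSO.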

[3] = molecular target: Tyk2/JAK2 (heterodimeric complex) (Homo sapiens (Human), UniProt P29597); assay: IL-12 Induced pSTAT4 in Human PBMC; type: cell-based; conditions: 1.7 ng/mL IL-12
Chain of Tyk2/JAK2 (heterodimeric complex) (P29597 whole entry, other chains not shown): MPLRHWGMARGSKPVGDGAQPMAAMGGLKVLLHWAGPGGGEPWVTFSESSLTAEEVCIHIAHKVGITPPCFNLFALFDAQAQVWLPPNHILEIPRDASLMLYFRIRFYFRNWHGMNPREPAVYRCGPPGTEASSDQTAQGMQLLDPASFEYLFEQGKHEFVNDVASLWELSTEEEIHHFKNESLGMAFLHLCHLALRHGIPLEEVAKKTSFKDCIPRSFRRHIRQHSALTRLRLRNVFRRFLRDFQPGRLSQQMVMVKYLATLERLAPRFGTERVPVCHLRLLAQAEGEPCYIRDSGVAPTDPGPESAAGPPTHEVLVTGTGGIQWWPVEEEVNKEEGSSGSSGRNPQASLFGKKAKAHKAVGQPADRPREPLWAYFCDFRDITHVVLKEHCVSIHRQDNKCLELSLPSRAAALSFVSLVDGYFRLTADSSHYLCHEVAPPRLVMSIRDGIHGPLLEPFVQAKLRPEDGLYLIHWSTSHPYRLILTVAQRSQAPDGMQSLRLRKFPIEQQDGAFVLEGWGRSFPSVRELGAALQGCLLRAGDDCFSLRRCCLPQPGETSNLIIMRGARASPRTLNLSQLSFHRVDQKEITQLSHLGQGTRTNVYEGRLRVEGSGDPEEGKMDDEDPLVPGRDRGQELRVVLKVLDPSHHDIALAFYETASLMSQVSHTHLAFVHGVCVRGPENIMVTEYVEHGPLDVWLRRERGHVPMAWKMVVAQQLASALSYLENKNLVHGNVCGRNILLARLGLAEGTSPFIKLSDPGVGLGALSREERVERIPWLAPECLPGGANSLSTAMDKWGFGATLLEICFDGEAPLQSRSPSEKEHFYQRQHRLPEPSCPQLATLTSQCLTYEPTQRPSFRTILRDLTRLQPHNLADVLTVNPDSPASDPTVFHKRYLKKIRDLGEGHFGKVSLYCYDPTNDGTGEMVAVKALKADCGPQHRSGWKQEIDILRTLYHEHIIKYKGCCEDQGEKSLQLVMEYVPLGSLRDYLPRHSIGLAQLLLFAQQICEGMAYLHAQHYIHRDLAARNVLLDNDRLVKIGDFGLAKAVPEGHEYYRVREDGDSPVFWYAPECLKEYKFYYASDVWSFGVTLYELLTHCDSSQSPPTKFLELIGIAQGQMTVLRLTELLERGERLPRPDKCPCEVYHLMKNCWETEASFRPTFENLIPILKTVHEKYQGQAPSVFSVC
Excerpt: The IL-12 Induced pSTAT4 assay evaluates the inhibition of IL-12 induced STAT4 phophorylation mediated by Tyk2/JAK2 (heterodimeric complex).

Chain of Tyk2 kinase domain (DH1) (P29597 897-1176): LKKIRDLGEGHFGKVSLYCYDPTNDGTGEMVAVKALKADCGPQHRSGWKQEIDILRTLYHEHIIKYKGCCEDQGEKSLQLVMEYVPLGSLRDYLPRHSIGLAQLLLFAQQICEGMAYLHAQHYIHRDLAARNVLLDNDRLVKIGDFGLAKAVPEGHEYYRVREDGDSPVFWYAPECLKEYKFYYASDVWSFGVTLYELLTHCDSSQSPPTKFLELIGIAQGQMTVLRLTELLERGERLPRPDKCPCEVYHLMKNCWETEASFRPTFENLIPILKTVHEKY

inhibition at 10 µM (Tyk2 kinase domain (DH1)) [%]	inhibition at 10 µM (JAK2 kinase domain (JH1)) [%]	IC50 [1] [nM]	Kd [2] [nM]	IC50 [3] [nM]	Structure (SMILES)
< 50	< 50	> 2500	< 0.2	–	CNc1cc(-c2cn(C3CCOCC3)c3ncccc23)nc2c(C(=O)NC3CCC3O)cnn12 (stereo not shown) [I-1048, N-(2-hydroxycyclobutyl)-7-(methylamino)-5-(1-(tetrahydro-2H-pyran-4-yl)-1H-pyrrolo[2,3-b]pyridin-3-yl)pyrazolo[1,5-a]pyrimidine-3-carboxamide]
< 50	< 50	> 50000	< 0.2	–	CNc1cc(Nc2cccn([C@H]3CCN(CCF)C3)c2=O)nc2c(C(=O)N[C@H]3CC[C@@H]3OC)cnn12 [I-1050, 5-((1-((S)-1-(2-fluoroethyl)pyrrolidin-3-yl)-2-oxo-1,2-dihydropyridin-3-yl)amino)-N-((1 S,2S)-2-methoxycyclobutyl)-7-(methylamino)pyrazolo[1,5-a]pyrimidine-3-carboxamide]
< 50	< 50	> 50000	< 0.2	–	CNc1cc(Nc2cccc3ocnc23)nc2c(C(=O)NC3CC[C@@H]3OC)cnn12 (stereo partly shown) [I-1051, 5-(benzo[d]oxazol-4-ylamino)-N-(2-methoxycyclobutyl)-7-(methylamino) pyrazolo[1,5-a]pyrimidine-3-carboxamide]
< 50	< 50	> 50000	< 0.2	–	CNc1cc(Nc2cccn3ccnc23)nc2c(C(=O)N[C@H]3CC[C@@H]3OC)cnn12 [I-1052]
< 50	< 50	> 12500	< 0.2	–	CNc1cc(-c2cn(C(C)C)c3ncc(F)cc23)nc2c(C(=O)N[C@H]3CC[C@@H]3OC)cnn12 [I-1053, 5-(5-fluoro-1-isopropyl-1H-pyrrolo[2,3-b]pyridin-3-yl)-N-((1S,2S)-2-methoycyclobutyl)-7-(methylamino)pyrazolo[1,5-a]pyrimidine-3-carboxamide]
< 50	< 50	> 50000	< 0.2	–	CNc1cc(Nc2cccn([C@H]3CCCC[C@H]3O)c2=O)nc2c(C(=O)N[C@@H]3CC[C@H]3OC)cnn12 [I-1057]
< 50	< 50	> 50000	< 0.2	–	CNc1cc(Nc2cccn([C@H]3CCCN(CCF)C3)c2=O)nc2c(C(=O)N[C@@H]3CC[C@H]3OC)cnn12 [I-1059]
< 50	< 50	> 50000	< 0.2	–	CNc1cc(Nc2cccn([C@H]3CCC[C@H](O)C3)c2=O)nc2c(C(=O)N[C@H]3CC[C@@H]3OC)cnn12 [I-1063]
< 50	< 50	> 50000	< 0.2	–	CNc1cc(Nc2cccn(-c3cnn(C)c3F)c2=O)nc2c(C(=O)N[C@H]3CC[C@@H]3OC)cnn12 [I-1066]
< 50	< 50	> 12500	< 0.2	–	CNc1cc(Nc2cccn(-c3ncc(C)s3)c2=O)nc2c(C(=O)N[C@@H]3CC[C@H]3O)cnn12 [I-1070]
< 50	< 50	> 50000	< 0.2	–	CNc1cc(Nc2cccn(-c3ncc(C)s3)c2=O)nc2c(C(=O)N[C@@H]3CC[C@@H]3O)cnn12 [I-1073]
< 50	< 50	> 50000	< 0.2	–	CNc1cc(Nc2cccn([C@@H]3CCC[C@H](OC)C3)c2=O)nc2c(C(=O)N[C@@H]3CC[C@H]3OC)cnn12 [I-1082]
< 50	< 50	> 50000	< 0.2	–	CNc1cc(Nc2cccn([C@@H]3CC[C@H]3O)c2=O)nc2c(C(=O)N[C@H]3CC[C@@H]3OC)cnn12 [I-1093]
< 50	< 50	> 50000	< 0.2	–	CNc1cc(Nc2cccn([C@H]3CC[C@@H]3O)c2=O)nc2c(C(=O)N[C@H]3CC[C@@H]3OC)cnn12 [I-1094]
< 50	< 50	> 50000	< 0.2	–	CNc1cc(Nc2cccn([C@@H]3CCCN(CCF)C3)c2=O)nc2c(C(=O)N[C@@H]3CC[C@H]3OC)cnn12 [I-1095]
< 50	< 50	> 50000	< 0.2	–	CNc1cc(Nc2cccn([C@@H]3CCN(CCF)C3)c2=O)nc2c(C(=O)NC3CCC3OC)cnn12 (stereo partly drawn) [I-1096, 5-((1-((R)-1-(2-fluoroethyl)pyrrolidin-3-yl)-2-oxo-1,2-dihydropyridin-3-yl)amino)-N-(2-methoxycyclobutyl)-7-(methylamino)pyrazolo[1,5-a]pyrimidine-3-carboxamide]
< 50	< 50	> 50000	< 0.2	–	CNc1cc(Nc2cccn([C@H]3CCCC[C@H]3OC)c2=O)nc2c(C(=O)N[C@H]3CC[C@@H]3OC)cnn12 [I-1097]
< 50	< 50	> 50000	< 0.2	–	CNc1cc(Nc2cccn([C@H]3CCC[C@H](OC)C3)c2=O)nc2c(C(=O)N[C@H]3CC[C@@H]3OC)cnn12 [I-1098]
< 50	< 50	> 50000	< 0.2	–	CNc1cc(Nc2cccn([C@@H]3CCC[C@@H](OC)C3)c2=O)nc2c(C(=O)N[C@H]3CC[C@@H]3OC)cnn12 [I-1099]
< 50	< 50	> 50000	< 0.2	–	CNc1cc(Nc2cccn([C@H]3CCC[C@H]3O)c2=O)nc2c(C(=O)N[C@H]3CC[C@@H]3OC)cnn12 [I-1101]
< 50	< 50	> 2500	< 0.2	–	CNc1cc(Nc2cccn3cnnc23)nc2c(C(=O)N[C@H]3CC[C@@H]3OC)cnn12 [I-1102]

inhibition at 10 µM (Tyk2 kinase domain (DH1)) [%]	inhibition at 10 µM (JAK2 kinase domain (JH1)) [%]	IC50 [1] [nM]	Kd [2] [nM]	IC50 [3] [nM]	Structure (SMILES)
< 50	< 50	> 50000	< 0.2	–	CNc1cc(Nc2cccn([C@H]3CC[C@](C)(OC)CC3)c2=O)nc2c(C(=O)N[C@H]3CC[C@@H]3OC)cnn12 [I-1105]
< 50	< 50	> 2500	< 0.2	–	CNc1cc(Nc2cccn([C@H]3CC[C@](C)(OC)CC3)c2=O)nc2c(C(=O)N[C@@H]3CC[C@H]3O)cnn12 [I-1107]
–	–	–	1 to 10	< 100	CNc1cc(Nc2cccn3ccnc23)nc2c(C(=O)N[C@@H]3CC[C@H]3OC)cnn12 [I-1133]
–	–	–	1 to 10	< 100	CNc1cc(-c2cn([C@H]3CCCOC3)c3ncccc23)nc2c(C(=O)N[C@H]3CC[C@@H]3OC)cnn12 [I-1283]
–	–	–	< 0.2	< 100	CNc1cc(Nc2cccn(-c3ccccn3)c2=O)nc2c(C(=O)N[C@@H]3C[C@H]3OC)cnn12 [I-1286]
–	–	–	< 0.2	< 100	CNc1cc(Nc2cccn([C@H]3CCC[C@@H](O)C3)c2=O)nc2c(C(=O)N[C@H]3CC[C@@H]3OC)cnn12 [I-1296]
–	–	–	< 0.2	< 100	CNc1cc(-c2cn(CCCO)c3ncccc23)nc2c(C(=O)N[C@@H]3CC[C@H]3OC)cnn12 [I-1299]
–	–	–	< 0.2	< 100	CNc1cc(Nc2cccn([C@@H]3CC[C@H]3O)c2=O)nc2c(C(=O)N[C@@H]3CC[C@H]3OC)cnn12 [I-1309]
–	–	–	< 0.2	< 100	CNc1cc(-c2cn(C3CCOCC3)c3ncc(F)cc23)nc2c(C(=O)N[C@H]3CC[C@@H]3O)cnn12 [I-1314]
–	–	–	< 0.2	< 100	CNc1cc(Nc2cccn(-c3nn(C)cc3F)c2=O)nc2c(C(=O)N[C@@H]3C[C@@H]3F)cnn12 [I-1321]
–	–	–	1 to 10	< 100	CNC(=O)c1occc1Nc1cc(NC)n2ncc(C(=O)N[C@H]3CC[C@@H]3OC)c2n1 [I-1323]
–	–	–	< 0.2	< 100	CNc1cc(Nc2cc3cccnc3n2C2CC2)nc2c(C(=O)N[C@H]3CC[C@@H]3OC)cnn12 [I-1325]
–	–	–	0.2 to 1	< 100	CNc1cc(-c2cn(C3CCOCC3)c3ncccc23)nc2c(C(=O)N[C@@H]3CC[C@H]3OC)cnn12 [I-1328]
–	–	–	1 to 10	< 100	CNc1cc(Nc2cccn([C@@H]3CCC[C@@H](OC)C3)c2=O)nc2c(C(=O)N[C@H]3CC[C@@H]3OC)cnn12 [I-1331]
–	–	–	1 to 10	< 100	CNc1cc(Nc2cccn([C@@H]3CCN(CCF)C3)c2=O)nc2c(C(=O)N[C@@H]3CC[C@H]3OC)cnn12 [I-1333]
–	–	–	–	< 100	CNc1cc(Nc2cccn3cnnc23)nc2c(C(=O)N[C@H]3CC[C@@H]3OC)cnn12 [I-1343]
–	–	–	< 0.2	< 100	CNc1cc(Nc2cccn([C@@H]3CC[C@@H]3O)c2=O)nc2c(C(=O)N[C@@H]3CC[C@H]3OC)cnn12 [I-1350]
–	–	–	–	< 100	CNc1cc(Nc2cccn(-c3cnn(C)c3F)c2=O)nc2c(C(=O)N[C@H]3CC[C@@H]3OC)cnn12 [I-1369]
–	–	–	–	< 100	CNc1cc(Nc2cccn([C@H]3CCC[C@H]3O)c2=O)nc2c(C(=O)N[C@H]3CC[C@@H]3OC)cnn12 [I-1373]
–	–	–	–	< 100	CNc1cc(Nc2cccn([C@H]3CCCC[C@H]3OC)c2=O)nc2c(C(=O)N[C@H]3CC[C@@H]3OC)cnn12 [I-1377]
